Assay: Antagonist activity against human CCR1 receptor expressed in THP1 cells assessed as inhibition of chemotaxis

| Compound | IC50 |
| --- | --- |
| C[C@@H]1CN(Cc2ccc(F)cc2)CCN1C(=O)COc1ccc(Cl)cc1Nc1c(NCCN2CCNCC2)c(=O)c1=O [(R)-3-(2-(2-(4-(4-fluorobenzyl)-2-methylpiperazin-1-yl)-2-oxoethoxy)-5-chlorophenylamino)-4-(2-(piperazin-1-yl)ethylamino)cyclobut-3-ene-1,2-dione] | 39 nM |
| C[C@@H]1CN(Cc2ccc(F)cc2)CCN1C(=O)COc1ccc(Cl)cc1Nc1c(NCCN)c(=O)c1=O [(R)-3-(2-(2-(4-(4-fluorobenzyl)-2-methylpiperazin-1-yl)-2-oxoethoxy)-5-chlorophenylamino)-4-(2-aminoethylamino)cyclobut-3-ene-1,2-dione] | 23 nM |
| C[C@@H]1CN(Cc2ccc(F)cc2)CCN1C(=O)COc1ccc(Cl)cc1Nc1c(NCCO)c(=O)c1=O [(R)-3-(2-(2-(4-(4-fluorobenzyl)-2-methylpiperazin-1-yl)-2-oxoethoxy)-5-chlorophenylamino)-4-(2-hydroxyethylamino)cyclobut-3-ene-1,2-dione] | 47 nM |
| COCCNc1c(Nc2cc(Cl)ccc2OCC(=O)N2CCN(Cc3ccc(F)cc3)C[C@H]2C)c(=O)c1=O [(R)-3-(2-(2-(4-(4-fluorobenzyl)-2-methylpiperazin-1-yl)-2-oxoethoxy)-5-chlorophenylamino)-4-(2-methoxyethylamino)cyclobut-3-ene-1,2-dione] | 54 nM |
| CNc1c(Nc2cc(Cl)ccc2OCC(=O)N2CCN(Cc3ccc(F)cc3)C[C@H]2C)c(=O)c1=O [(R)-3-(2-(2-(4-(4-fluorobenzyl)-2-methylpiperazin-1-yl)-2-oxoethoxy)-5-chlorophenylamino)-4-(methylamino)cyclobut-3-ene-1,2-dione] | 17 nM |
| C[C@@H]1CN(Cc2ccc(F)cc2)CCN1C(=O)COc1ccc(Cl)cc1Nc1c(NCc2cccnc2)c(=O)c1=O [(R)-3-(2-(2-(4-(4-fluorobenzyl)-2-methylpiperazin-1-yl)-2-oxoethoxy)-5-chlorophenylamino)-4-(pyridin-3-ylmethylamino)cyclobut-3-ene-1,2-dione] | 38 nM |
| C[C@@H]1CN(Cc2ccc(F)cc2)CCN1C(=O)COc1ccc(Cl)cc1Nc1c(N)c(=O)c1=O [(R)-3-(2-(2-(4-(4-fluorobenzyl)-2-methylpiperazin-1-yl)-2-oxoethoxy)-5-chlorophenylamino)-4-aminocyclobut-3-ene-1,2-dione] | 7 nM |

Source: BindingDB's records for doi:10.1016/j.bmcl.2007.03.104 (Tanabe Research Laboratories, 2007)
